Here are results for 22 compounds from patent publication US11702427B2 (priority 2018, dated 2023).

pEC50: −log10 of the molar value.

The first assay relates to HBsAg. In words: HBsAg assay: inhibition of HBsAg in HepG2.2.15 cells (CLIA immunoassay of supernatant). As to conditions: Hepatitis B virus, HepG2.2.15, 144 h, read-out: sAg EC50, HepG2.2.15 cells; supernatant collected at day 6 after exposure; HBsAg chemiluminescence immunoassay. Type of assay: cell-based, hepatitis B virus (HBV). The procedure:
Inhibition of HBsAg was determined in HepG2.2.15 cells. Cells were maintained in culture medium containing 10% fetal calf serum, […], Glutamine, penicillin/streptomycin. Cells were seeded in 96-well collagen-coated plate at a density of 30,000 cells/well. Serially diluted compounds were added to cells next day at the final DMSO concentration of 0.5%. Cells were incubated with compounds for 2-3 days, after which medium was removed. Fresh medium containing compounds was added to cells for additional 3-4 days. At day 6 after exposure of compounds, supernatant was collected, the HBsAg immunoassay (microplate-based chemiluminescence immunoassay kits, CLIA, Autobio Diagnosics Co., Zhengzhou, China, Catalog #CL0310-2) was used to determine the level of HBsAg according to manufactory instruction. Dose-response curves were generated and the EC50 value (effective concentrations that achieved 50% inhibitory effect) were determined using XLfit software. In addition, cells can be seeded at a density of 5,000 cells/well for determination of cell viability in the presence and absence of compounds by using CellTiter-Glo reagent (Promega). Tables 1-3 show EC50 values obtained by the HBsAg assay for selected compounds.
Turning to `COCCCOc1cc2c(nc1Cl)-c1c(cc(C(=O)O)c(=O)n1C)C(C(C)C)C2` (stereo not shown) [Example 25, 9-Chloro-5-isopropyl-8-(3-methoxypropoxy)-1-methyl-2-oxo-1,2,5,6-tetrahydro-1,10-phenanthroline-3-carboxylic acid], the pEC50 is 7.03.

As to `COCCCOc1cc2c(cc1OC)-c1nc(Cl)c(C(=O)O)cc1C(C(C)C)C2` (stereo not shown) [Example 23, 2-Chloro-5-isopropyl-9-methoxy-8-(3-methoxypropoxy)-5,6-dihydrobenzo[h]quinoline-3-carboxylic acid], the negative-log EC50 (pEC50) was 6.62.

`COCCCOc1cc2c(cc1Cl)-c1[nH]c(=O)c(C(=O)O)cc1C(C)(C(C)C)C2` (stereo not shown) [Example 9, 9-Chloro-5-isopropyl-8-(3-methoxypropoxy)-5-methyl-2-oxo-1,6-dihydrobenzo[h]quinoline-3-carboxylic acid]: the pEC50 is 7.51.

As to `COCCCOc1cc2c(nc1OC)-c1[nH]c(=O)c(C(=O)NO)c(O)c1C(C(C)(C)C)C2` (stereo not shown) [Example 65, 5-(tert-Butyl)-N,4-dihydroxy-9-methoxy-8-(3-methoxypropoxy)-2-oxo-1,2,5,6-tetrahydro-1,10-phenanthroline-3-carboxamide], the pEC50 was 8.70.

In the case of `CNC(=O)c1c(O)c2c([nH]c1=O)-c1nc(OC)c(OCCCOC)cc1CC2C(C)(C)C` (stereo not shown) [Example 63, 5-(tert-Butyl)-4-hydroxy-9-methoxy-8-(3-methoxypropoxy)-N-methyl-2-oxo-1,2,5,6-tetrahydro-1,10-phenanthroline-3-carboxamide], the negative logarithm of the EC50 (pEC50) is 7.74.

Consider `COCCCOc1cc2c(cc1OC)-c1nc(Cl)c(C(=O)O)c(O)c1C(C(C)C)C2` (stereo not shown) [Example 19, 2-Chloro-4-hydroxy-5-isopropyl-9-methoxy-8-(3-methoxypropoxy)-5,6-dihydrobenzo[h]quinoline-3-carboxylicacid], for which the pEC50 is 5.10.

For the compound `COCCCOc1cc2c(nc1C1CC1)-c1[nH]c(=O)c(C(=O)O)cc1C(C(C)C)C2` (stereo not shown) [Example 56, 9-Cyclopropyl-5-isopropyl-8-(3-methoxypropoxy)-2-oxo-1,2,5,6-tetrahydro-1,10-phenanthroline-3-carboxylicacid], the pEC50 is 9.00.

For the compound `COCCCOc1cc2c(nc1C1CC1)-c1[nH]c(=O)c(C(=O)O)c(O)c1C(C(C)C)C2` (stereo not shown) [Example 49, 9-Cyclopropyl-4-hydroxy-5-isopropyl-8-(3-methoxypropoxy)-2-oxo-1,2,5,6-tetrahydro-1,10-phenanthroline-3-carboxylicacid], the pEC50 was 9.00.

Consider `COCCCOc1cc2c(nc1OC)-c1[nH]c(=O)c(C(N)=O)cc1C(C(C)(C)C)C2` (stereo not shown) [Example 62, 5-(tert-Butyl)-9-methoxy-8-(3-methoxypropoxy)-2-oxo-1,2,5,6-tetrahydro-1,10-phenanthroline-3-carboxamide], for which the pEC50 was 7.60.

With `COCCCOc1cc2c(cc1OC)-c1[nH]c(=O)c(C(=O)O)c(Cl)c1C(C(C)C)C2` (stereo not shown) [Example 20, 4-Chloro-5-isopropyl-9-methoxy-8-(3-methoxypropoxy)-2-oxo-1,2,5,6-tetrahydrobenzo[h]quinoline-3-carboxylic acid], the pEC50 was 5.42.

`COCCCOc1cc2c(cc1OC)-c1[nH]c(=O)cc(O)c1C(C(C)C)C2` (stereo not shown) [Example 22, 4-Hydroxy-5-isopropyl-9-methoxy-8-(3-methoxypropoxy)-5,6-dihydrobenzo[h]quinolin-2(1H)-one]: the pEC50 is 6.47.

Turning to `COCCCOc1cc2c(cc1OC)-c1[nH]c(=O)c(C(=O)O)c(OCCO)c1C(C(C)C)C2` (stereo not shown) [Example 90, 4-(2-Hydroxyethoxy)-5-isopropyl-9-methoxy-8-(3-methoxypropoxy)-2-oxo-1,2,5,6-tetrahydrobenzo[h]quinoline-3-carboxylicacid], the pEC50 was 4.96.

In the case of `COCCCOc1cc2c(cc1OC)-c1[nH]c(=O)c(C(=O)O)c(OCCOC)c1C(C(C)C)C2` (stereo not shown) [Example 88, 5-Isopropyl-9-methoxy-4-(2-methoxyethoxy)-8-(3-methoxypropoxy)-2-oxo-1,2,5,6-tetrahydrobenzo[h]quinoline-3-carboxylic acid], the negative logarithm of the EC50 (pEC50) is 5.33.

On to `COCCCOc1cc2c(nc1OC)-c1[nH]c(=O)c(C(N)=O)c(O)c1C(C(C)(C)C)C2` (stereo not shown) [Example 59, 5-(tert-Butyl)-4-hydroxy-9-methoxy-8-(3-methoxypropoxy)-2-oxo-1,2,5,6-tetrahydro-1,10-phenanthroline-3-carboxamide], for which the pEC50 was 8.52.

In the case of `COCCCOc1cc2c(nc1C1CC1)-c1[nH]c(=O)c(C(=O)O)c(O)c1C(C(C)C)CO2` (stereo not shown) [Example 93, 2-Cyclopropyl-8-hydroxy-7-isopropyl-3-(3-methoxypropoxy)-10-oxo-6,7,10,11-tetrahydrooxepino[3,2-b:4,5-b′]dipyridine-9-carboxylic acid], the pEC50 is 6.92.

With `COCCCOc1cc2c(nc1OC)-c1[nH]c(=O)c(C(=O)NO)cc1C(C(C)(C)C)C2` (stereo not shown) [Example 67, 5-(tert-Butyl)-N-hydroxy-9-methoxy-8-(3-methoxypropoxy)-2-oxo-1,2,5,6-tetrahydro-1,10-phenanthroline-3-carboxamide], the pEC50 was 8.30.

On to `COCCCOc1cc2c(nc1OC)-c1[nH]c(=O)c(C(=O)O)cc1C(C(C)(C)C)C2` (stereo not shown) [Example 46, 5-(tert-Butyl)-9-methoxy-8-(3-methoxypropoxy)-2-oxo-1,2,5,6-tetrahydro-1,10-phenanthroline-3-carboxylicacid], for which the negative-log EC50 (pEC50) was 9.00.

For the compound `COCCCOc1cc2c(cc1OC)-c1[nH]c(=O)c(C(=O)O)c(OCCN(C)C)c1C(C(C)C)C2` (stereo not shown) [Example 89, 4-(2-(Dimethylamino)ethoxy)-5-isopropyl-9-methoxy-8-(3-methoxypropoxy)-2-oxo-1,2,5,6-tetrahydrobenzo[h]quinoline-3-carboxylic acid], the pEC50 is 5.34.

Staying with this assay, now noted: read-out: sAg EC50; HepG2.2.15 cells; supernatant collected at day 6 after exposure; HBsAg chemiluminescence immunoassay.
Take `COCCCOc1cc2c(nc1OC)-c1[nH]c(=O)c(C(=O)O)c(O)c1C(C(C)(C)C)C2` (single isomer, unassigned) [Example 38, 5-(tert-Butyl)-4-hydroxy-9-methoxy-8-(3-methoxypropoxy)-2-oxo-1,2,5,6-tetrahydro-1,10-phenanthroline-3-carboxylic acid]: the pEC50 is 7.46.

Take `COCCCOc1cc2c(nc1OC)-c1[nH]c(=O)c(C(=O)O)c(O)c1C(C(C)(C)C)C2` (single isomer, unassigned) [Example 37, 5-(tert-Butyl)-4-hydroxy-9-methoxy-8-(3-methoxypropoxy)-2-oxo-1,2,5,6-tetrahydro-1,10-phenanthroline-3-carboxylic acid]: the pEC50 was 9.00.

`CCc1nc2c(cc1OCCCOC)OCC(C(C)(C)C)c1c-2[nH]c(=O)c(C(=O)O)c1O` (single isomer, unassigned) [Example 80, 7-(tert-Butyl)-2-ethyl-8-hydroxy-3-(3-methoxypropoxy)-10-oxo-6,7,10,11-tetrahydrooxepino[3,2-b:4,5-b′]dipyridine-9-carboxylic acid]: the pEC50 was 5.15.

As to `CCc1nc2c(cc1OCCCOC)OCC(C(C)(C)C)c1c-2[nH]c(=O)c(C(=O)O)c1O` (single isomer, unassigned) [Example 81, 7-(tert-Butyl)-2-ethyl-8-hydroxy-3-(3-methoxypropoxy)-10-oxo-6,7,10,11-tetrahydrooxepino[3,2-b:4,5-b′]dipyridine-9-carboxylic acid], the pEC50 was 8.40.

The pEC50 is −log10 of the EC50, conventionally taken in molar units.
